Results published in ChEMBL document CHEMBL3885881, “DrugMatrix”.

Species: Rattus norvegicus
Assay: DrugMatrix - Regimen: Daily Repeat
Assay type: toxicity, organism-based, Sprague-Dawley
Design: regimen Daily Repeat, gender Male, age 6-8 weeks
Details: in vivo, po, route oral GAVAGE, vehicle 100 % WATER; for ABSOLUTE BASOPHIL / ABSOLUTE EOSINOPHIL / ABSOLUTE LYMPHOCYTE / ABSOLUTE MONOCYTE / ABSOLUTE SEGMENTED NEUTROPHIL / BASOPHIL / EOSINOPHIL / ERYTHROCYTE COUNT / HEMATOCRIT / HEMOGLOBIN / LEUKOCYTE COUNT / LYMPHOCYTE / MEAN CORPUSCULAR HEMOGLOBIN / MEAN CORPUSCULAR HEMOGLOBIN CONCENTRATION / MEAN CORPUSCULAR VOLUME / MONOCYTE / NEUTROPHIL / NUCLEATED RED BLOOD CELLS / PLATELET COUNT: tissue Blood; for ALANINE AMINOTRANSFERASE / ALBUMIN / ALKALINE PHOSPHATASE / ASPARTATE AMINOTRANSFERASE / BLOOD UREA NITROGEN / CARBON DIOXIDE / CHLORIDE / CHOLESTEROL / CREATINE PHOSPHOKINASE / CREATININE / GLUCOSE / LACTATE DEHYDROGENASE / LIPASE / PHOSPHORUS / POTASSIUM / SODIUM / TOTAL BILIRUBIN / TOTAL PROTEIN / URIC ACID: tissue Plasma
[1] = 0 mg/kg, 72 h, dose level Control, time 3 day
[2] = 0 mg/kg, 120 h, dose level Control, time 5 day
[3] = 6 mg/kg, 72 h, dose level Low, time 3 day

## CN1CCN(C(=O)OC2c3nccnc3C(=O)N2c2ccc(Cl)cn2)CC1 (centres undefined) [ZOPICLONE]
[1]
  ABSOLUTE BASOPHIL: 0 CELLS/uL
  ABSOLUTE EOSINOPHIL: 86.33 CELLS/uL
  ABSOLUTE LYMPHOCYTE: 12090.17 CELLS/uL
  ABSOLUTE MONOCYTE: 166.67 CELLS/uL
  ABSOLUTE SEGMENTED NEUTROPHIL: 1090.17 CELLS/uL
  BASOPHIL: 0%
  EOSINOPHIL: 0.67%
  ERYTHROCYTE COUNT: 5.57 x10E6/uL
  HEMATOCRIT: 35.33%
  HEMOGLOBIN: 13.83 G/DL
  LEUKOCYTE COUNT: 13.43 x10E3/uL
  LYMPHOCYTE: 89.83%
  MEAN CORPUSCULAR HEMOGLOBIN: 24.88 pg
  MEAN CORPUSCULAR HEMOGLOBIN CONCENTRATION: 39.15 G/DL
  MEAN CORPUSCULAR VOLUME: 63.52 fL
  MONOCYTE: 1.17%
  NEUTROPHIL: 8.33%
  NUCLEATED RED BLOOD CELLS: 0 /100WBC
  PLATELET COUNT: 1181.33 x10E3/uL
  ALANINE AMINOTRANSFERASE: 48.33 u/L
  ALBUMIN: 4.1 G/DL
  ALKALINE PHOSPHATASE: 395 u/L
  ASPARTATE AMINOTRANSFERASE: 81.83 u/L
  BLOOD UREA NITROGEN: 15.83 mg/dL
  CARBON DIOXIDE: 24.17 mmol/L
  CHLORIDE: 103.83 MEQ/L
  CHOLESTEROL: 63.67 mg/dL
  CREATINE PHOSPHOKINASE: 372.83 u/L
  CREATININE: 0.18 mg/dL
  GLUCOSE: 173.83 mg/dL
  LACTATE DEHYDROGENASE: 188.33 u/L
  LIPASE: 9.5 u/L
  PHOSPHORUS: 11.95 mg/dL
  POTASSIUM: 5.99 MEQ/L
  SODIUM: 144.43 MEQ/L
  TOTAL BILIRUBIN: 0.15 mg/dL
  TOTAL PROTEIN: 5.95 G/DL
  URIC ACID: 1.82 mg/dL
[2]
  ABSOLUTE BASOPHIL: 0 CELLS/uL
  ABSOLUTE EOSINOPHIL: 26.67 CELLS/uL
  ABSOLUTE LYMPHOCYTE: 7583.83 CELLS/uL
  ABSOLUTE MONOCYTE: 131.33 CELLS/uL
  ABSOLUTE SEGMENTED NEUTROPHIL: 674.83 CELLS/uL
  BASOPHIL: 0%
  EOSINOPHIL: 0.33%
  ERYTHROCYTE COUNT: 5.78 x10E6/uL
  HEMATOCRIT: 36.48%
  HEMOGLOBIN: 14.03 G/DL
  LEUKOCYTE COUNT: 8.42 x10E3/uL
  LYMPHOCYTE: 89.83%
  MEAN CORPUSCULAR HEMOGLOBIN: 24.3 pg
  MEAN CORPUSCULAR HEMOGLOBIN CONCENTRATION: 38.52 G/DL
  MEAN CORPUSCULAR VOLUME: 63.15 fL
  MONOCYTE: 1.67%
  NEUTROPHIL: 8.17%
  NUCLEATED RED BLOOD CELLS: 0 /100WBC
  PLATELET COUNT: 1186.67 x10E3/uL
  ALANINE AMINOTRANSFERASE: 50.17 u/L
  ALBUMIN: 4.07 G/DL
  ALKALINE PHOSPHATASE: 367.5 u/L
  ASPARTATE AMINOTRANSFERASE: 81.67 u/L
  BLOOD UREA NITROGEN: 16.17 mg/dL
  CARBON DIOXIDE: 32.33 mmol/L
  CHLORIDE: 101.5 MEQ/L
  CHOLESTEROL: 65.33 mg/dL
  CREATINE PHOSPHOKINASE: 255.33 u/L
  CREATININE: 0.17 mg/dL
  GLUCOSE: 139.33 mg/dL
  LACTATE DEHYDROGENASE: 95 u/L
  LIPASE: 10.5 u/L
  PHOSPHORUS: 10.38 mg/dL
  POTASSIUM: 6.11 MEQ/L
  SODIUM: 145.55 MEQ/L
  TOTAL BILIRUBIN: 0.17 mg/dL
  TOTAL PROTEIN: 5.98 G/DL
  URIC ACID: 0.93 mg/dL
[3]
  ABSOLUTE BASOPHIL: 0 CELLS/uL
  ABSOLUTE EOSINOPHIL: 0 CELLS/uL
  ABSOLUTE LYMPHOCYTE: 14318.33 CELLS/uL
  ABSOLUTE MONOCYTE: 218 CELLS/uL
  ABSOLUTE SEGMENTED NEUTROPHIL: 1497 CELLS/uL
  BASOPHIL: 0%
  EOSINOPHIL: 0%
  ERYTHROCYTE COUNT: 5.61 x10E6/uL
  HEMATOCRIT: 35.47%
  HEMOGLOBIN: 13.67 G/DL
  LEUKOCYTE COUNT: 16.03 x10E3/uL
  LYMPHOCYTE: 89.33%
  MEAN CORPUSCULAR HEMOGLOBIN: 24.37 pg
  MEAN CORPUSCULAR HEMOGLOBIN CONCENTRATION: 38.53 G/DL
  MEAN CORPUSCULAR VOLUME: 63.23 fL
  MONOCYTE: 1.33%
  NEUTROPHIL: 9.33%
  NUCLEATED RED BLOOD CELLS: 0 /100WBC
  PLATELET COUNT: 1106.33 x10E3/uL
  ALANINE AMINOTRANSFERASE: 43.67 u/L
  ALBUMIN: 3.9 G/DL
  ALKALINE PHOSPHATASE: 402 u/L
  ASPARTATE AMINOTRANSFERASE: 70.33 u/L
  BLOOD UREA NITROGEN: 14.33 mg/dL
  CARBON DIOXIDE: 25.33 mmol/L
  CHLORIDE: 102 MEQ/L
  CHOLESTEROL: 72.33 mg/dL
  CREATINE PHOSPHOKINASE: 454.67 u/L
  CREATININE: 0.15 mg/dL
  GLUCOSE: 170.33 mg/dL
  LACTATE DEHYDROGENASE: 139 u/L
  LIPASE: 9 u/L
  PHOSPHORUS: 12.8 mg/dL
  POTASSIUM: 6.03 MEQ/L
  SODIUM: 142.73 MEQ/L
  TOTAL BILIRUBIN: 0.2 mg/dL
  TOTAL PROTEIN: 5.63 G/DL
  URIC ACID: 1.97 mg/dL
